Data as given in patent publication US20020055470A1, “Circumvention of human tumor drug resistance” (CITY OF HOPE, priority 1987, published 2002).
Values joined by “and” are separate entries in the source; they are usually repeats but may differ in a detail not shown here. Equal values may be shown once. Read-outs that look alike come from different tables or passages of the source. Each block holds one compound with its values, some of them ahead of it.

Assays:
Format in all cases: cell-based, human
HCT8DDP = assay: Inhibition of cell growth (cells counted on Coulter Counter after six days)
Experimental: (§1) Table VI includes EC50 data further exemplifying the invention. The data reported by Table VI was obtained by substantially the same procedure as that described with respect to Table III. In Table VI, “(C)” indicates continuous exposure, “(1 h)” and “(2 h)” indicate exposure for 1 hour and 2 hours; “HU” indicates hydroxyurea.

HCT8S = assay: as above
Experimental: as §1

HCF7S = assay: Inhibition of cell growth, Table VI
K562S = assay: Inhibition of cell growth, Table VI
Experimental: as §1

HCF-7 DDP = assay: Inhibition of cell growth, Table VI; conditions: for EC50: HCF-7 DDP
Experimental: as §1

K562-araC = assay: Inhibition of cell growth, Table VI; conditions: for EC50: K562-araC
Experimental: as §1

A2780S [1] = assay: Inhibition of cell growth (cells counted on Coulter Counter after six days)
Experimental: The experiment was conducted in triplicate in the manner described with respect to Table I.
A2780 cells were well-plated (35 mm disnes) and 24 hours later the cells were treated with cisplatin for one hour, washed out and then treated with 6 concentrations of from 1 μM to 100 μM increased in equal increments of a nucleoside analog in saline. Cells were then washed and incubated for six days. The cells were counted on a Coulter Counter and the experiment was done in triplicate.
as §1

A2780DDP [2] = assay: as above; conditions: for Ratio (degree of resistance or cross-resistance): A2780DDP vs A2780S EC50
Experimental: The experiment was conducted in triplicate in the manner described with respect to Table I. […]
as §1

K562-VP16 = assay: Inhibition of cell growth, Table VI
K562-DDP = assay: Inhibition of cell growth, Table VI; conditions: for EC50: K562-DDP
A2780DDP [3] = assay: Dual labeled (14C/3H) DNA synthesis and degradation in response to cisplatin; incorporation of labelled nucleoside analogs
Description: A dual labeled (^14C/^3H) experiment was designed to measure simultaneously DNA synthesis and degradation in response to cisplatin.

A2780S [4] = assay: Dual labeled (14C/3H) DNA synthesis and degradation in response to cisplatin; conditions: cisplatin 20 μM
Experimental: A dual labeled (^14C/^3H) experiment was designed to measure simultaneously DNA synthesis and degradation in response to cisplatin. […] A2780S cells respond to cisplatin with a modest degradation (10%) of (^14C) DNA over 3 hrs. In contrast, A2780DDP degradation 40.5% of the (^14C) DNA in 3 hrs. […] Transplatin at equimolar concentrations (20 μM) had no influence on DNA synthesis or degradation in A2780 cells.

[5] = Homo sapiens, HCT8-DDP, (C) continuous exposure, read-out: EC50
[6] = Homo sapiens, (C) continuous exposure, read-out: EC50
[7] = Homo sapiens, (C) continuous exposure
[8] = Homo sapiens, A2780S, (C) continuous exposure, read-out: EC50
[9] = Homo sapiens, A2780 DDP, (C) continuous exposure, read-out: EC50
[10] = HCT8-DDP, (C) continuous exposure, read-out: EC50
[11] = (C) continuous exposure, read-out: EC50
[12] = A2780S, (C) continuous exposure, read-out: EC50
[13] = A2780 DDP, (C) continuous exposure, read-out: EC50

EC50 (K562S; [7]): > 300 µM
EC50 (K562-araC; [7]): > 300 µM
EC50 (K562-VP16; [7]): > 300 µM
EC50 (K562-DDP; [7]): > 300 µM
SMILES: Nc1nc2c(ncn2COCCO)c(=O)[nH]1 [Acyclovir]
EC50 (HCT8DDP; [5]): > 300 µM
EC50 (HCT8S; [6]): > 300 µM
EC50 (HCF7S; [7]): > 300 µM
EC50 (HCF-7 DDP; [7]): > 300 µM
EC50 (A2780S [1]; [8]): > 300 µM
EC50 (A2780DDP [2]; [9]): > 300 µM

EC50 (K562S; [7]): 10 µM
EC50 (K562-araC; [7]): 20 µM
EC50 (K562-VP16; [7]): 250 µM
EC50 (K562-DDP; [7]): 295 µM
SMILES: Nc1nc(O)c2ncn(COC(CO)CO)c2n1 [Ganciclovir, ganciclovir]
fold more sensitive, cispt resistant vs sensitive HCT8 cells (HCT8DDP; HCT8 human colon cancer cells): 1.5 fold
EC50 (HCT8DDP; [5]): 40 µM
EC50 (HCT8DDP; Homo sapiens, HCT8DDP, treated 24 h after plating, counted six days later, mean + SD, read-out: Ganciclovir EC50): 40 µM
EC50 (HCT8S; [6]): 60 µM
EC50 (HCT8S; Homo sapiens, treated 24 h after plating, counted six days later, mean + SD, read-out: Ganciclovir EC50): 60 µM
EC50 (HCF7S; [7]): 200 µM
EC50 (HCF-7 DDP; [7]): 50 µM
fold more sensitive, cispt resistant vs sensitive MCF7 cells (HCF-7 DDP; MCF7 human breast cancer cells): 4 fold
EC50 (A2780S [1]; [8]): 110 µM
EC50 (A2780S [1]; Homo sapiens, A2780S, treated 24 h after plating, counted six days later, mean + SD, read-out: Ganciclovir EC50): 110 µM
fold more sensitive (lower concentration), cisplatin resistant vs sensitive A2780 cells (A2780DDP [2]; A2780DDP vs A2780S): 3-4 fold and 3.3 fold
EC50 (A2780DDP [2]; [9]): 30 µM
EC50 (A2780DDP [2]; Homo sapiens, A2780DDP, treated 24 h after plating, counted six days later, mean + SD, read-out: Ganciclovir EC50): 30 µM

EC50 (K562S; [7]): 25 µM
EC50 (K562-araC; [7]): > 300 µM
EC50 (K562-VP16; [7]): 100 µM
EC50 (K562-DDP; [7]): 5 µM
SMILES: Nc1ccn([C@H]2CC[C@@H](CO)O2)c(=O)n1 [ddC, dideoxycytidine]
EC50 (HCT8DDP; [5]): 23 µM
EC50 (HCT8S; [6]): 2 µM
EC50 (HCF7S; [7]): 2.5 µM
EC50 (HCF-7 DDP; [7]): > 100 µM
EC50 (A2780S [1]; Homo sapiens, A2780S, 144 h, continuous exposure, proliferation during 6 days, mean + SD, read-out: EC50 A2780S): 1.5 µM
EC50 (A2780S [1]; [8]): 1.5 µM
Incorporation of labelled nucleoside analog into macromolecules (A2780DDP [3]; A2780DDP, 0 min after cisplatin (20 μM) treatment): 15.09
Incorporation of labelled nucleoside analog into macromolecules (A2780DDP [3]; A2780DDP, 45 min after cisplatin (20 μM) treatment): 36.94
Incorporation of labelled nucleoside analog into macromolecules (A2780DDP [3]; A2780DDP, 90 min after cisplatin (20 μM) treatment): 42.61
Incorporation of labelled nucleoside analog into macromolecules (A2780DDP [3]; A2780DDP, 180 min after cisplatin (20 μM) treatment): 45.93
Ratio (degree of resistance or cross-resistance) (A2780DDP [2]; continuous exposure): +2.6
EC50 (A2780DDP [2]; Homo sapiens, 144 h, continuous exposure, proliferation during 6 days, mean + SD, read-out: EC50 A2780DDP): 4 µM
EC50 (A2780DDP [2]; [9]): 4 µM
factor more sensitive, cispt resistant vs sensitive K562 cells (K562-DDP; K562 human leukemia cells): 5

EC50 (K562S; (C) continuous exposure): 40 µM
EC50 (K562-araC; (C) continuous exposure): 40 µM
EC50 (K562-VP16; (C) continuous exposure): 40 µM
EC50 (K562-DDP; (C) continuous exposure): 140 µM
SMILES: NC(=O)NO [NU, hydroxyurea]
EC50 (HCT8DDP; [10]): 100 µM
EC50 (HCT8S; [11]): 100 µM
EC50 (HCF7S; (C) continuous exposure): 100 µM
EC50 (HCF-7 DDP; (C) continuous exposure): 200 µM
EC50 (A2780S [1]; [12]): 75 µM
EC50 (A2780DDP [2]; [13]): 60 µM

SMILES: N.N.[Cl][Pt][Cl] [Cisplatin, cisplatin]
EC50 (HCT8DDP; HCT8-DDP, (1h) exposure, read-out: EC50): 100 µM
fold resistance, cispt resistant vs sensitive HCT8 cells (HCT8DDP; HCT8 human colon cancer cells): 2.7 fold
EC50 (HCT8S; (1h) exposure, read-out: EC50): 30 µM
EC50 (HCF7S; (1h) exposure): 15 µM
EC50 (K562S; (1h) exposure): 6 µM
EC50 (HCF-7 DDP; (1h) exposure): 35 µM
fold resistance, cispt resistant vs sensitive MCF7 cells (HCF-7 DDP; MCF7 human breast cancer cells): 2.3 fold
EC50 (K562-araC; (1h) exposure): 25 µM
EC50 (A2780S [1]; A2780S, (1h) exposure, read-out: EC50): 7 µM
EC50 (A2780S [1]; treatment time 1 hr, proliferation during 6 days, mean + SD, read-out: EC50 A2780S): 7 µM
degradation of (14C) DNA (A2780DDP [3]; A2780DDP, cisplatin 20 μM, in 3 hrs): 40.5%
14C-Tdr/DNA A2780DDP (A2780DDP [3]; cisplatin 20 μM, treatment time 0 min): 17.78
14C-Tdr/DNA A2780DDP (A2780DDP [3]; cisplatin 20 μM, treatment time 45 min): 14.44
14C-Tdr/DNA A2780DDP (A2780DDP [3]; cisplatin 20 μM, treatment time 90 min): 12.59
14C-Tdr/DNA A2780DDP (A2780DDP [3]; cisplatin 20 μM, treatment time 180 min): 10.57
Ratio (degree of resistance or cross-resistance) (A2780DDP [2]; treatment time 1 hr): +12.8
EC50 (A2780DDP [2]; A2780 DDP, (1h) exposure, read-out: EC50): 90 µM
fold resistance, cisplatin resistant vs sensitive A2780 cells (A2780DDP [2]; A2780 ovarian carcinoma cells): > 12 fold
EC50 (A2780DDP [2]; treatment time 1 hr, proliferation during 6 days, mean + SD, read-out: EC50 A2780DDP): 90 µM
degradation of (14C) DNA (A2780S [4]; A2780S, over 3 hrs): 10%
14C-Tdr/DNA A2780S (A2780S [4]; treatment time 0 min): 6.49
14C-Tdr/DNA A2780S (A2780S [4]; treatment time 45 min): 6.21
14C-Tdr/DNA A2780S (A2780S [4]; treatment time 90 min): 5.71
14C-Tdr/DNA A2780S (A2780S [4]; treatment time 180 min): 6.06
EC50 (K562-VP16; (1h) exposure): 15 µM
EC50 (K562-DDP; (1h) exposure): 15 µM

EC50 (K562S; (C) continuous exposure): 130 µM
EC50 (K562-araC; (C) continuous exposure): 67 µM
EC50 (K562-VP16; (C) continuous exposure): 150 µM
EC50 (K562-DDP; (C) continuous exposure): 160 µM
SMILES: Nc1ncnc2c1ncn2[C@@H]1O[C@H](CO)C[C@H]1O [Cordicpin]
EC50 (HCT8DDP; [10]): 95 µM
EC50 (HCT8S; [11]): 110 µM
EC50 (HCF7S; (C) continuous exposure): 130 µM
fold more sensitive, araC resistant vs sensitive K562 cells (K562-araC; K562 human leukemia cells): 2 fold
EC50 (A2780S [1]; [12]): 70 µM
EC50 (A2780DDP [2]; [13]): 310 µM
